Patent publication US20260325685A1, “Radiopharmaceutical Compositions Targeting Carbonic Anhydrase IX and Uses Thereof” (RayzeBio, Inc., priority 2023, published 2026)
Read-outs that look alike come from different tables or passages of the source.

What was measured:
human CA-XII = target: T1, human CA-XII (Homo sapiens, UniProt O43570); experiment: Surface Plasmon Resonance (SPR) binding kinetics to recombinant human CA-XII (Biacore 8K, single-cycle kinetics, 1:1 binding model)
T1 construct: purchased Creative BioMart CA12-261H
T1 sequence (O43570 25-354): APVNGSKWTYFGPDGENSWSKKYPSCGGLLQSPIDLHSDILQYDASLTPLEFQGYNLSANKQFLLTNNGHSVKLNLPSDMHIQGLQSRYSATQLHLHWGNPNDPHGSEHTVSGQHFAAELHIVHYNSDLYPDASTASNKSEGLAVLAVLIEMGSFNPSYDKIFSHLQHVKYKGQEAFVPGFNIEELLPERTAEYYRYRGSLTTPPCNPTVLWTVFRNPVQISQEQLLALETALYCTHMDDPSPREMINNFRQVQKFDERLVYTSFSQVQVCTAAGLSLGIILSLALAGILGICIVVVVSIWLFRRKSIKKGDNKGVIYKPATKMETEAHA
In short: (§1)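 Proteins were captured on streptavidin chips at 1200-1800 RU (CA-IX 180 s, CA-XII 75 s injection). Compound was run at 9 concentrations (100-0.39 nM) in PBS-P+ pH 7.4 with 1% DMSO, 120 s association, 1200 s dissociation, 25° C. Rate constants came from reference- and DMSO-corrected curves.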

human CA-IX = target: T2, human CA-IX (Homo sapiens, UniProt Q16790); experiment: Surface Plasmon Resonance (SPR) binding kinetics to recombinant human CA-IX (Biacore 8K, single-cycle kinetics, 1:1 binding model)
T2 construct: purchased Acro CA9-H82E3
In short: as §1

[1] = Chelated Metal: Lu-175, 25° C., pH 7.4, read-out: CAXII KD
[2] = Chelated Metal: Lu-175; SPR, 25° C., pH 7.4; read-out: CAIX KD
[3] = read-out: CAXII KD, Chelated Metal: Lu-175, 25° C., pH 7.4
[4] = read-out: CAIX KD; Chelated Metal: Lu-175; SPR, 25° C., pH 7.4

Row | SMILES | Kd (human CA-XII; [1]) [nM] | Kd (human CA-IX; [2]) [nM] | further results
1 | NS(=O)(=O)c1nnc(NC(=O)C23CCC(c4cn(CCNC(=O)[C@@H]5CN(C(=O)CN6CCN(CC(=O)O)CCN(CC(=O)O)CCN(CC(=O)O)CC6)CCN5C(=O)CC[C@H](NC(=O)C[C@H](NC(=O)c5cc(C(F)(F)F)[nH]n5)C(=O)O)C(=O)O)nn4)(CC2)CC3)s1.[Lu+3] [Compound 109.47] | < 1 | < 1 | –
2 | NS(=O)(=O)c1nnc(NC(=O)C23CC(c4cn(CCNC(=O)[C@@H]5CN(C(=O)CN6CCN(CC(=O)O)CCN(CC(=O)O)CCN(CC(=O)O)CC6)CCN5C(=O)CNC(=O)C5(C(=O)O)CCN(C(=O)Cc6c[nH]nc6C(F)(F)F)CC5)nn4)(C2)C3)s1.[Lu+3] [Compound 112.14] | > 10 | 2.5 to 10 | –
3 | CC(CCCC(=O)N1CCC(C(N)=O)(C(=O)NCC(=O)N2CCN(C(=O)CCOCCOCCNC(=O)CN3CCN(CC(=O)O)CCN(CC(=O)O)CCN(CC(=O)O)CC3)C[C@@H]2C(=O)NCCn2cc(C34CC(C(=O)Nc5nnc(S(N)(=O)=O)s5)(C3)C4)nn2)CC1)(c1ccc(O)cc1)c1ccc(O)cc1.[Lu+3] [Compound 129.2] | > 10 | < 1 | –
4 | NS(=O)(=O)c1nnc(NC(=O)C23CC(c4cn(CCNC(=O)[C@@H]5CN(C(=O)CN6CCN(CC(=O)O)CCN(CC(=O)O)CCN(CC(=O)O)CC6)CCN5C(=O)C[C@H](NC(=O)C[C@H](NC(=O)c5ccc(C(F)(F)F)cc5)C(=O)O)C(=O)O)nn4)(C2)C3)s1.[Lu+3] [Compound 109.35] | 2.5 to 10 | 1 to 2.5 | –
5 | NS(=O)(=O)c1nnc(NC(=O)C23CC(c4cn(CCNC(=O)[C@H]5CNCCN5C(=O)[C@H](CCCCNC(=O)CN5CCN(CC(=O)O)CCN(CC(=O)O)CCN(CC(=O)O)CC5)NC(=O)CC[C@H](NC(=O)c5n[nH]c6ccccc56)C(=O)O)nn4)(C2)C3)s1.[Lu+3] [Compound 118.3] | 2.5 to 10 | 2.5 to 10 | –
6 | CC(CCCC(=O)N1CCC(C(=O)O)(C(=O)NCC(=O)N2CCN(C(=O)CN3CCN(CC(=O)O)CCN(CC(=O)O)CCN(CC(=O)O)CC3)C[C@H]2C(=O)NCCn2cc(C34CC(C(=O)Nc5nnc(S(N)(=O)=O)s5)(C3)C4)nn2)CC1)(c1ccc(O)cc1)c1ccc(O)cc1.[Lu+3] [Compound 112.18] | > 10 | 1 to 2.5 | –
7 | Cc1c(C(=O)N[C@@H](CC(=O)N[C@@H](CC(=O)N2CCN(C(=O)CN3CCN(CC(=O)O)CCN(CC(=O)O)CCN(CC(=O)O)CC3)C[C@H]2C(=O)NCCn2cc(C34CC(C(=O)Nc5nnc(S(N)(=O)=O)s5)(C3)C4)nn2)C(=O)O)C(=O)O)n[nH]c1C(F)(F)F.[Lu+3] [Compound 109.3] | < 1 | < 1 | –
8 | NS(=O)(=O)c1nnc(NC(=O)C23CC(c4cn(CCNC(=O)[C@@H]5CN(C(=O)CN6CCN(CC(=O)O)CCN(CC(=O)O)CCN(CC(=O)O)CC6)CCN5C(=O)C[C@H](NC(=O)C[C@H](NC(=O)Cc5n[nH]c6ccc(F)cc56)C(=O)O)C(=O)O)nn4)(C2)C3)s1.[Lu+3] [Compound 109.11] | 2.5 to 10 | < 1 | –
9 | Cc1cc(C2CC2)ccc1C(=O)N[C@@H](CC(=O)N[C@@H](CC(=O)N1CCN(C(=O)CN2CCN(CC(=O)O)CCN(CC(=O)O)CCN(CC(=O)O)CC2)C[C@H]1C(=O)NCCn1cc(C23CC(C(=O)Nc4nnc(S(N)(=O)=O)s4)(C2)C3)nn1)C(=O)O)C(=O)O.[Lu+3] [Compound 109.30] | 2.5 to 10 | < 1 | –
10 | CC(CCCC(=O)N1CCC(C(=O)O)(C(=O)NCC(=O)N2CCN(C(=O)CN3CCN(CC(=O)O)CCN(CC(=O)O)CCN(CC(=O)O)CC3)C[C@@H]2C(=O)NCCn2cc(C34CCC(C(=O)Nc5nnc(S(N)(=O)=O)s5)(C3)C4)nn2)CC1)(c1ccc(O)cc1)c1ccc(O)cc1.[Lu+3] [Compound 107.24] | 2.5 to 10 | 1 to 2.5 | –
11 | NS(=O)(=O)c1nnc(NC(=O)C23CCC(c4cn(CCNC(=O)[C@@H]5CN(C(=O)CN6CCN(CC(=O)O)CCN(CC(=O)O)CCN(CC(=O)O)CC6)CCN5C(=O)CC[C@H](NC(=O)C[C@H](NC(=O)CCC5CCCCCC5)C(=O)O)C(=O)O)nn4)(CC2)CC3)s1.[Lu+3] [Compound 109.46] | < 1 | < 1 | –
12 | CC(CCC(=O)N1CCC(C(=O)O)(C(=O)NCC(=O)N[C@@H](CCCCn2cc(CCCC(=O)Nc3nnc(S(N)(=O)=O)s3)nn2)C(=O)NCCOCCOCCNC(=O)CN2CCN(CC(=O)O)CCN(CC(=O)O)CCN(CC(=O)O)CC2)CC1)(c1ccc(O)cc1)c1ccc(O)cc1.[Lu+3] [Compound 102] | – | – | Kd (human CA-XII; [3]): > 10 nM; Kd (human CA-IX; [4]): 1 to 2.5 nM
13 | NS(=O)(=O)c1nnc(NC(=O)C23CCC(c4cn(CCNC(=O)[C@@H]5CN(C(=O)CN6CCN(CC(=O)O)CCN(CC(=O)O)CCN(CC(=O)O)CC6)CCN5C(=O)CC[C@H](NC(=O)C[C@H](NC(=O)CCC(F)(F)F)C(=O)O)C(=O)O)nn4)(CC2)CC3)s1.[Lu+3] [Compound 109.53] | < 1 | < 1 | –
14 | CC(CCCC(=O)N1CCC(C(N)=O)(C(=O)NCC(=O)N2CCN(C(=O)CN3CCN(CC(=O)O)CCN(CC(=O)O)CC3)C[C@H]2C(=O)NCCn2cc(C34CC(C(=O)Nc5nnc(S(N)(=O)=O)s5)(C3)C4)nn2)CC1)(c1ccc(O)cc1)c1ccc(O)cc1.[Cu+2] [Compound 126] | – | – | Kd (human CA-XII; Chelated Metal: Cu (cold), 25° C., pH 7.4, read-out: CAXII KD): > 10 nM; Kd (human CA-IX; Chelated Metal: Cu (cold); SPR, 25° C., pH 7.4; read-out: CAIX KD): < 1 nM
15 | CC(CCC(=O)N[C@@H](CC(=O)N[C@@H](CC(=O)NC1(C(=O)NCCOCCOCCNC(=O)CN2CCN(CC(=O)O)CCN(CC(=O)O)CCN(CC(=O)O)CC2)CN(C(=O)Cn2cc(CCCC(=O)Nc3nnc(S(N)(=O)=O)s3)nn2)C1)C(=O)O)C(=O)O)(c1ccc(O)cc1)c1ccc(O)cc1.[Lu+3] [Compound 103] | – | – | Kd (human CA-XII; [3]): 2.5 to 10 nM; Kd (human CA-IX; [4]): 1 to 2.5 nM
16 | CC(CCC(=O)N[C@@H](CC(=O)N[C@@H](CC(=O)NC1(C(=O)NCCOCCOCCNC(=O)CN2CCN(CC(=O)O)CCN(CC(=O)O)CCN(CC(=O)O)CC2)CN(C(=O)Cn2cc(CCCCC(=O)Nc3nnc(S(N)(=O)=O)s3)nn2)C1)C(=O)O)C(=O)O)(c1ccc(O)cc1)c1ccc(O)cc1.[Lu+3] [Compound 103.4] | 2.5 to 10 | 2.5 to 10 | –
17 | CC(CC(=O)N1CCC(C(N)=O)(C(=O)NCC(=O)N[C@@H](CCCCn2cc(CCCC(=O)Nc3nnc(S(N)(=O)=O)s3)nn2)C(=O)NCCOCCOCCNC(=O)CN2CCN(CC(=O)O)CCN(CC(=O)O)CCN(CC(=O)O)CC2)CC1)(c1ccc(O)cc1)c1ccc(O)cc1.[Lu+3] [Compound 102.2] | > 10 | 2.5 to 10 | –
18 | Cc1c(C(F)(F)F)n[nH]c1C(=O)N[C@@H](CC(=O)N[C@@H](CCC(=O)N1CCN(C(=O)CN2CCN(CC(=O)O)CCN(CC(=O)O)CCN(CC(=O)O)CC2)C[C@H]1C(=O)NCCn1cc(C23CCC(C(=O)Nc4nnc(S(N)(=O)=O)s4)(CC2)CC3)nn1)C(=O)O)C(=O)O.[Lu+3] [Compound 109.49] | < 1 | < 1 | –
19 | CC(CCCC(=O)N1CCOC[C@H]1C(=O)N[C@@H](CC(=O)N1CCN(C(=O)CCOCCOCCOCCOCCN(CCOCCOCCOCCOCCC(=O)N2CCN(C(=O)C[C@H](NC(=O)[C@@H]3COCCN3C(=O)CCCC(C)(c3ccc(O)cc3)c3ccc(O)cc3)C(=O)O)[C@@H](C(=O)NCCn3cc(C45CC(C(=O)Nc6nnc(S(N)(=O)=O)s6)(C4)C5)nn3)C2)C(=O)CNC(=O)CN2CCN(CC(=O)O)CCN(CC(=O)O)CCN(CC(=O)O)CC2)C[C@@H]1C(=O)NCCn1cc(C23CC(C(=O)Nc4nnc(S(N)(=O)=O)s4)(C2)C3)nn1)C(=O)O)(c1ccc(O)cc1)c1ccc(O)cc1.[Lu+3] [Compound 131.3] | < 1 | < 1 | –
20 | CC(CCCC(=O)N1CCC(C(N)=O)(C(=O)NCC(=O)NC2(C(=O)NCCn3nnc(C45CC(C(=O)Nc6nnc(S(N)(=O)=O)s6)(C4)C5)c3C(=O)O)CCN(C(=O)CN3CCN(CC(=O)O)CCN(CC(=O)O)CCN(CC(=O)O)CC3)CC2)CC1)(c1ccc(O)cc1)c1ccc(O)cc1.[Lu+3] [Compound 135] | – | – | Kd (human CA-XII; [3]): > 10 nM; Kd (human CA-IX; [4]): < 1 nM
21 | CC(CCCC(=O)N1CCC(C(N)=O)(C(=O)NCC(=O)NC2(C(=O)NCCn3cc(C45CC(C(=O)Nc6nnc(S(N)(=O)=O)s6)(C4)C5)nn3)CCN(C(=O)CN3C[C@@H]4CN(C(=O)CN5CCN(CC(=O)O)CCN(CC(=O)O)CCN(CC(=O)O)CC5)C[C@@H]4C3)CC2)CC1)(c1ccc(O)cc1)c1ccc(O)cc1.[Lu+3] (racemic) [Compound 129.6] | > 10 | < 1 | –
22 | NS(=O)(=O)c1nnc(NC(=O)C23CC(c4cn(CCNC(=O)[C@@H]5CN(C(=O)CN6CCN(CC(=O)O)CCN(CC(=O)O)CCN(CC(=O)O)CC6)CCN5C(=O)C[C@H](NC(=O)C[C@H](NC(=O)CCCc5ccc6c(c5)CCCC6)C(=O)O)C(=O)O)nn4)(C2)C3)s1.[Lu+3] [Compound 109.36] | 2.5 to 10 | 1 to 2.5 | –
23 | NS(=O)(=O)c1nnc(NC(=O)C23CCC(c4cn(CCNC(=O)[C@@H]5CN(C(=O)CN6CCN(CC(=O)O)CCN(CC(=O)O)CCN(CC(=O)O)CC6)CCN5C(=O)CC[C@H](NC(=O)C[C@H](NC(=O)Cc5[nH]nc6ccc(O)cc56)C(=O)O)C(=O)O)nn4)(CC2)CC3)s1.[Lu+3] [Compound 109.41] | < 1 | < 1 | –
24 | CC(CCNC(=O)N1CCC(C(N)=O)(C(=O)NCC(=O)N2CCN(C(=O)CN3CCN(CC(=O)O)CCN(CC(=O)O)CCN(CC(=O)O)CC3)C[C@H]2C(=O)NCCn2cc(C34CC(C(=O)Nc5nnc(S(N)(=O)=O)s5)(C3)C4)nn2)CC1)(c1ccc(O)cc1)c1ccc(O)cc1.[Lu+3] [Compound 107.56] | > 10 | 1 to 2.5 | –
25 | N[C@@H](CC(=O)N[C@@H](CC(=O)N1CCN(C(=O)CCOCCOCCOCCOCCN(CCOCCOCCOCCOCCC(=O)N2CCN(C(=O)C[C@H](NC(=O)C[C@H](N)C(=O)O)C(=O)O)[C@H](C(=O)NCCn3cc(C45CC(C(=O)Nc6nnc(S(N)(=O)=O)s6)(C4)C5)nn3)C2)C(=O)CNC(=O)CN2CCN(CC(=O)O)CCN(CC(=O)O)CCN(CC(=O)O)CC2)C[C@H]1C(=O)NCCn1cc(C23CC(C(=O)Nc4nnc(S(N)(=O)=O)s4)(C2)C3)nn1)C(=O)O)C(=O)O.[Lu+3] [Compound 131.5] | < 1 | < 1 | –
